Legend:
[1] = test system: rhizavidin; experiment: binding of rhizavidin to ligands assessed for affinity chromatography; set-up: species or system Rhizobium etli; details: for binding to rhizavidin: ligand assessed for affinity chromatography
[2] = test system: rhizavidin; experiment: affinity column purification of rhizavidin with immobilized ligand; set-up: species or system Rhizobium etli; details: data not shown
Description: The following steps can be followed to prepare a LA-matrix for use in the methods as disclosed herein: • i. Resuspend CARBOXYLINK™ Coupling Resin (Life technologies, 20266) and aliquot 1 ml of suspended resin into an empty column, e.g., a bio-rad Econo-Pac Chromatography Column, allow resin to settle. Wash the resin with approx.20 ml of water and add 10 ml of PBS (×1) to equilibrate resin. • ii. Prepare a 100 mg/ml solution of Sulfo-NHS by dissolving 50 mg of Sulfo-NHS (N-hydroxysulfosuccinimide) in 0.5 ml of 0.1M MES buffer. • iii. Prepare a Sulfo-NHS/LA mixture by adding 0.25 ml of ethanol and 0.25 ml of 50 mg/ml LA stock solution (12.5 mg of LA) to 0.5 ml of Sulfo-NHS (100 mg/ml). • iv. To cross link the LA to the resin, dissolve 25 mg of EDC in 0.75 ml of coupling buffer and immediately add to Sulfo-NHS/LA mixture. Incubate the EDC/Sulfo-NHS/LA mixture with rotation for 30 min RT. Adjust the pH of the EDC/Sulfo-NHS/LA mixture to pH 7.0 by adding 1M Na2HPO4 (pH11) (approx. 0.5 ml of 1M Na2HPO4) • v. Resuspend the equilibrated CARBOXYLINK™ Coupling Resin with EDC/Sulfo-NHS/LA mixture and transfer everything to a 5 ml tube, incubate with rotation overnight RT. • vi. Transfer resin into an empty column, allow LA resin/LA matrix to settle. Wash resin with the following reagents in the following order; (i) 20 ml of wash buffer, (ii) 20 ml of H2O, (iii) Wash resin comprising 5 ml of 20% ethanol. Store LA resin/LA matrix in 20% ethanol until use.
The following steps can be followed in the methods as disclosed herein to purify a biotin-binding protein, e.g., rhizavidin or a rhiavidin fusion protein using a LA-matrix from a bacterial suspension expressing the rhizavidin or a rhiavidin fusion protein: • v. Collect E. coli culture by centrifugation, discard supernatant, and resuspend pelleted cells with a lysis buffer (20 mM Tris, 1M NaCl, pH8.0) containing DNase, proteinase inhibitors and 10 mM MgCl2. […] Transfer resin into an empty column after incubation and wash the LA resin with wash buffer (50% ethanol, 20 mM Tris, 1M NaCl) until no protein is detected in flow through • ix. […]

[3] = biological target: streptavidin (Streptomyces avidinii, UniProt P22629); details: cited from earlier work

Row | affinity of binding to rhizavidin [1] | affinity of rhizavidin for lipoic acid compared with polyhistadine tag for nickel [1] | SMILES | binding to rhizavidin [1] | effectiveness of column comprising the ligand at purifying rhizavidin [2] | binding to streptavidin [3]
1 |  |  | Cc1cc(N=Nc2ccccc2C(=O)O)cc(C)c1O [dimethyl-HABA] | did not bind | not effective | bind with high affinity
2 |  |  | O=C(O)c1ccccc1N=Nc1ccc(O)cc1 [HABA, hydrooxyazobenzene-benzoic acid] | did not bind | not effective | bind with high affinity
3 | micromolar affinity | approximately the same as histadine | O=C(O)CCCCC1CCSS1 (stereo not drawn) [lipoic acid, 1,2-dithione-3-pentanoic acid] |  | effective | 

From US20190119332A1, “METHODS TO PURIFY AVIDIN-LIKE PROTEINS AND FUSION PROTEINS THEREOF” (THE CHILDREN'S MEDICAL CENTER CORPORATION, priority 2016, published 2019)
